Measured values as given in patent publication US9512172B2, “Ethanol dependence of alpha1 antitrypsin C-terminal Lys truncation by basic carboxypeptidases” (Baxalta Incorporated, priority 2006, dated 2016).

Key:
CPN [1] = target: T1, CPN (Homo sapiens, UniProt P15169); details: at 10% ethanol
T1 sequence (P15169 21-458): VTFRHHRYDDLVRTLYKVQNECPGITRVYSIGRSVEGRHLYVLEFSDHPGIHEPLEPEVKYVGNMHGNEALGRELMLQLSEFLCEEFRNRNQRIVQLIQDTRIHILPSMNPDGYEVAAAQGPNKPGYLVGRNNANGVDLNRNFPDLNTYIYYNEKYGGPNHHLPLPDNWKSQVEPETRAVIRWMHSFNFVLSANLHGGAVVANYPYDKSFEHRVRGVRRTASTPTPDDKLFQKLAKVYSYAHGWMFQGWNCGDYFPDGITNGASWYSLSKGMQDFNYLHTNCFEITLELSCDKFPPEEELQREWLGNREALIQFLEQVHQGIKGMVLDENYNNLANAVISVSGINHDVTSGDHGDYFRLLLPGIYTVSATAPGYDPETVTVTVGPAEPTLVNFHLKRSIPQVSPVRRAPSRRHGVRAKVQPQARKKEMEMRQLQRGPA
T1 sequence (P22792 22-545 partner): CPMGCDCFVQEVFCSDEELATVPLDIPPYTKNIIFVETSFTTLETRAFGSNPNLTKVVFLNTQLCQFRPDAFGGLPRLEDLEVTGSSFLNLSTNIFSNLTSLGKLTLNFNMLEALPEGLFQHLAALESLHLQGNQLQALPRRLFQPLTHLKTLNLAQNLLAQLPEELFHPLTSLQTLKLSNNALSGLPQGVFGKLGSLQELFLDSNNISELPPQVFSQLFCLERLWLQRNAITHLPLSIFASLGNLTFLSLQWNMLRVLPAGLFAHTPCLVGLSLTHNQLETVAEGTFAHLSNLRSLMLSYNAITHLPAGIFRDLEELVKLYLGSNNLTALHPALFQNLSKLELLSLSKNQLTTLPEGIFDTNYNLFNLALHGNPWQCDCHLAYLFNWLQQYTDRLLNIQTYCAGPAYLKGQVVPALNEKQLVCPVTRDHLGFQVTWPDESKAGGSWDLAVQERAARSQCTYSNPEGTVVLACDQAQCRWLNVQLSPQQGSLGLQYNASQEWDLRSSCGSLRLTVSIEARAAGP
Description: The activity of the basic carboxypeptidases was measured with a HPLC-assisted assay as described^52. This assay is based on the cleavage of the synthetic substrate hippuryl-L-arginine. Released hippuric acid was determined with reverse phase high performance liquid chromatography (RP-HPLC). Briefly, to 10 μl of sample, 40 μl of 30 mM hippuryl-L-arginine (Bachem Feinchemikalien, Buchs, Switzerland) in 50 mM HEPES, pH 8.0, was added and incubated for 30 minutes at 37° C. in a water bath. Hippuryl-L-arginine cleavage was stopped by adding 50 μl of 1 M HCl. 10 μl of o-methyl hippuric acid (synthesized from methylbenzoyl chloride) serving as an internal standard was added afterwards. The hippuric acid (Bz-Gly, Fluka, Buchs, Switzerland) and o-methyl hippuric acid were extracted with ethyl acetate (300 μl). This layer was evaporated to dryness, redissolved in the mobile phase (10 mM KH2PO4, 10% acetonitrile, pH 3.5) and injected unto the column (C-18 Chromolith, performance 100-4.6 mm column (Merck, Darmstadt, Germany). The separation was done in isocratic mode and monitored at 228 nm. One unit of carboxypeptidase activity is defined as the amount of enzyme required to release 1 μmol of hippuric acid per min at 37° C. under the assay conditions described.

CPU = target: T2, CPU (Homo sapiens, UniProt Q96IY4); details: cited from earlier work
T2 sequence (Q96IY4 115-423): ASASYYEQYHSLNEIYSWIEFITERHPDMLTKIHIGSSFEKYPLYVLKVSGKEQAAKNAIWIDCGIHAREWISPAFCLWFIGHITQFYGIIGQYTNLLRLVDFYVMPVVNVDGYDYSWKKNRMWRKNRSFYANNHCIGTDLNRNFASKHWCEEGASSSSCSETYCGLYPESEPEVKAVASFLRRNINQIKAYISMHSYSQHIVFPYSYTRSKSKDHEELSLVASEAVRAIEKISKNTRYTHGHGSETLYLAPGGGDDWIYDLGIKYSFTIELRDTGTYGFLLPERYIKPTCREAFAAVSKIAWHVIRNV

CPN present in the paste = target: T3, CPN present in the paste (Homo sapiens, UniProt P15169); test: Effect of CP inhibitors on C-terminal lysine truncation in dissolved, ethanol-treated IV-1 paste (IEF); assay type: biochemical
T3 construct: Cohn IV-1 precipitate is usually derived after ethanol fractionation of plasma; from tissue; host or cells: Cohn IV-1 paste (ethanol precipitate of plasma)
T3 sequence (P15169 21-458): T1 sequence (P15169 21-458)
T3 sequence (P22792 22-545 partner): T1 sequence (P22792 22-545 partner)
Description: Cohn IV-1 paste was dissolved in 2.6 volumes of 10 mM Tris-buffer at pH 8.8 and incubated for 30 min at 22° C. The suspension was made 40% in ethanol (by addition of 2.4 volumes of ethanol), stirred for a further 60 min, diluted with the same Tris-buffer to 10% ethanol and extracted for a further 6 h.
The following inhibitors were added in parallel during extraction and dilution with Tris-buffer: 100 mM 6-aminocaproic acid, 10 μM or 1 nM 2-mercaptomethyl-3-guanidinoethylthiopropanoic acid (a more specific inhibitor of CPN). The samples were characterized by high resolution isoelectric focusing.
For high resolution isoelectric focusing a new hybrid IEF method using IPG-Immobiline gels (GE Healthcare Bio-Sciences, pI 4.2-4.9, Uppsala, Sweden) was developed which is similar to that described by Weidinger^54. Samples were diluted with water to 0.5 mg A1PI/mL and 5 mM DTE was added. Samples (20 μl) were applied close to the cathode on the pre-focused gel and focused for 150 min (5000 Vh). For paste extracts focusing time was extended to 420 min. Gels were stained with Coomassie Brilliant Blue G-250 (BioRad, Hercules, USA) as described by Neuhoff^55. Blotting and immunostaining were done with a rabbit anti-A1PI antibody (Rabbit Anti-Human Alpha-1-Antitrypsin, #A0012, DakoCytomation, Glostrup, Denmark).

CPN [2] = target: T1, CPN; details: cited from earlier work

Structure (SMILES)	Rate of substrate (Bz-Gly-Arg) cleavage by CPN (CPN [1])	Ki (CPU) [nM]	Inhibition of Lys truncation induced by the procedure 40=>10% EtOH (CPN present in the paste; dissolved IV-1 paste, pH 8.8, 6 h)	Inhibition of lysine removal from A1PI (CPN present in the paste; inhibitor at 10 μmol/l)	Ki (CPN [2]) [nM]
CCO [ethanol]	almost doubled				
N=C(N)NCCSCC(CS)C(=O)O (racemic) [DL-2-mercaptomethyl-3-guanidinoethylthio-propanoic acid]		200	dose-dependently	completely inhibited	8.7
